US20260158140A1, “METHODS AND MATERIALS FOR IMPROVING T CELL THERAPIES” (Mayo Foundation for Medical Education and Research, priority 2021, published 2026)
Entries after “also recorded” stand apart in the source; their conditions may differ.

Assays:
[1] = test system: CART19 cells; assay: CART19 proliferation: co-culture with irradiated JeKo-1, absolute CD3+ T cell counts by flow cytometry; type: cell-based, human; details: 1 μM
Method: FIGS. 11A-11B. Proliferation. […] CART19 and irradiated JeKo-1 were co-cultured at 1:1 ratio for 24 hours in the presence of DMSO or vecabrutinib (1 μM or 10 μM) or ibrutinib (1 μM or 10 μM). Absolute CD3^+T cell counts were assessed by flow cytometry (*p<0.05, ****p<0.0001, two-way ANOVA). FIG. 11B) To further verify effect of BTK inhibition on CART19 proliferation, using different set of donors for CAR T cell production, CART19 and irradiated JeKo-1 were co-cultured at 1:1 ratio for 24 hours in the presence of DMSO or vecabrutinib (10 μM) or ibrutinib (10 μM).
For proliferation assays, CART19 cells were cultured with irradiated CD19^+ cell line Jeko-1 at a 1:1 ratio for 24 hours. Then, the cells were harvested and washed with flow buffer, following by surface staining with anti-hCD3 (eBioscience, San Diego, CA, USA) and LIVE/DEAD™ Fixable Aqua Dead Cell Stain Kit (Invitrogen, Carlsbad, CA, USA). […] Absolute quantification was obtained using volumetric measurement or CountBright absolute counting beads (Invitrogen, Carlsbad, CA, USA). […]
Next, the effect of vecabrutinib on CART19 proliferation was assessed. CART19 cells were cocultured with irradiated JeKo-1 cells for 24 hours in the presence of vecabrutinib (1 μM or 10 μM), and the absolute count of CART19 was measured by flow cytometry and used as a surrogate for proliferation. […]

[2] = test system: CD19+ Mantle cell lymphoma cell line, Jeko-1; assay: CART19 cytotoxicity: co-culture of CART19 or UTD T cells with JeKo-1, percent killing; type: cell-based, human
Method: FIGS. 1A-1C. […] CART19 and live JeKo-1 were co-cultured at 1:1 ratio for 24 hours in the presence of DMSO or vecabrutinib (1 μM or 10 μM). The percentage of killing were assessed relative to control (****p<0.0001, two-way ANOVA). […] CART19 and irradiated JeKo-1 were co-cultured at 1:1 ratio for 24 hours in the presence of DMSO or vecabrutinib (1 μM or 10 μM). Absolute CD3^+ T cell counts were assessed by flow cytometry (**p<0.01, two-way ANOVA) . […] JeKo-1 target cells were incubated with CART19 at a 5:1 ratio with monensin, hCD49d, and hCD28 in the presence of vecabrutinib at the indicated concentrations for 4 hours. Cells were then analyzed using intracellular flow cytometric assessment of CD107a as a marker for degranulation.
FIG. 10. CART19 cytotoxicity in the presence of Vecabrutinib versus the irreversible BTK inhibitor, Ibrutinib. CART19 or control cells (UTD) were cocultured at different effector-to-target ratio (E:T) with Jeko-1 cell line with vecabrutinib at 1 μM or 10 μM, or ibrutinib at 1 μM. At 24 hours, live Jeko cells numbers was measured by flow cytometry and percent killing was calculated relative to control (*p<0.05, **p<0.01, two-way ANOVA).
To investigate CAR T-specific cytotoxicity, CART19 cells or control UTD T cells were co-cultured with the CD19^+ Mantle cell lymphoma cell line, Jeko-1, at 1:1 ratio and treated with vehicle (DMSO) or vecabrutinib at 1 μM or 10 μM for 24 hours (FIG. 1A).
Measurement of CART19 killing of JeKo-1 cells at different effector to target ratios. […] Results were normalized to target cells incubated with the respective concentration of the BTK inhibitor alone (with no CART19) to eliminate the direct cytotoxic effect of the inhibitor on lymphoma cells without CART19. 10 μM of ibrutinib was not included as it caused 100% killing of CART19 cells and Jeko-1 cells (FIGS. 11A and 11B).

[3] = test system: luciferase+JeKo-1 cells; assay: JeKo-1 xenograft model with CART19 plus oral vecabrutinib; type: in vivo; details: CART19 + vecabrutinib 50 mg/kg BID vs CART19 + vehicle, weekly weighing (FIG. 4C)
Method: FIGS. 4A-4C. Reversible BTK inhibition in vivo enhances CAR T cell antitumor activity in xenograft models. […] On day-14, NSG mice were injected with 1×10^6 luciferase+JeKo-1 cells intravenously. Gavage began on day −1 with vecabrutinib 50 mg/kg BID or vehicle. Untransduced T cells (UTD) or CART19 were infused on day 0. Mice were imaged weekly to assess the tumor burden. p/s=photons/seconds. […] Mice were bled weekly to measure CART19 by flow cytometry (*p<0.05, one-way ANOVA). FIG. 4C) Vecabrutinib decreases CRS. Mouse weight and wellbeing along with elevation of human cytokines represent a surrogate for the development of CRS intensity in mice receiving CART19. […]
6-8 week old, non-obese diabetic/severe combined immunodeficient female mice bearing a targeted mutation in the interleukin (IL)-2 receptor gamma chain gene (NSG) were obtained from Jackson Laboratories (Jackson Laboratories, Bar Harbor, ME, USA). […] Mice were weighed weekly, and measurements were recorded in grams. Tumor burden was measured weakly by imaging mice with a bioluminescent imager using an IVIS® Lumina S5 Imaging System (PerkinElmer, Hopkinton, MA, USA), and measurements were recorded in total flux (p/s). […] Absolute quantification was obtained using volumetric measurement or CountBright absolute counting beads (Invitrogen, Carlsbad, CA, USA). […]

[4] = test system: CART19 cells; assay: RNA-Seq of CART19 cells stimulated with irradiated JeKo-1 (differential expression, Ingenuity Pathway Analysis); type: cell-based, human; details: 10 μM vs vehicle
Method: CART19 and irradiated Jeko-1 cells were co-cultured at a 1:1 ration for 72 hours with DMSO or 10 μM Vecabrutinib. Three biological replicates of stimulated and unstimulated CART19 cells were included.
RNA was isolated using miRNeasy Micro kit (Qiagen, Gaithersburg, MD, USA) and treated with RNase-Free DNase Set (Qiagen, Gaithersburg, MD, USA). Total RNA was prepped with a SMARTer stranded total RNA-seq kit v2, Pico input mammalian (Takara, Mountain View, CA, USA). Total RNA (three samples per lane) was sequenced on an Illumina HiSeq 4000 (Illumina, San Diego, CA, USA). Library preparation and sequencing were performed by the Medical Genome Facility Genome, Analysis Core (Mayo Clinic, Rochester, MN, USA). Fastq files were viewed in FastQC v0.11.8 to check for quality. Adaptor sequences were removed using Cutadapt v1.18.46. Output files were re-checked for quality and adaptor removal using FastQC v0.11.8. The latest human (GRCh38) reference genomes were downloaded from NCBI. Genome index files were generated using STAR, and the paired end reads were mapped to the genome for each condition. HTSeq was used to generate expression counts for each gene, and DeSeq2 was used to calculate differential expression using adjusted p values <0.05. Heatmap was created using pheatmap (cran.r-project.org/web/packages/pheatmap/index.html). Networks were generated using Ingenuity Pathway Analysis v49932394 (QIAGEN, qiagenbioinformatics.com/products/ingenuity-pathway-analysis). Gene set enrichment analyses were performed using Enrichr (maayanlab.cloud/Enrichr/).
• Biological Replicates: C267, C278, C296 where CART19 cells were generated • Conditions: • Vehicle • 1 μM vecabrutinib • 10 μM vecabrutinib • Activated for 72 hours with Irradiated JeKo-1 (1:1 E:T Ratio) • mRNA was extracted from CART19 cells • RNA sequencing was performed
• FastQC (initial quality check) • Trimmomatic (trim adapters and overrepresented sequences) • FastQC (to confirm removal of the above) • STAR (align to the latest human genome annotation, GRCh38.p13) • HTSeq (obtain counts for each gene) • DESeq2 • Normalized counts across samples • Calculated differential expression between groups • Multiple hypothesis correction (Benjamini-Hochberg procedure)

| SMILES | CART19 proliferation (absolute CD3+ T cell count) ([1]; irradiated JeKo-1 1:1, 24 hours (FIG. 11A)) | killing of CART19 cells and Jeko-1 cells ([2]; 10 μM) [%] | CART19-mediated killing of Jeko-1 lymphoma cells ([2]; different E:T ratios, 24 hours, vecabrutinib 1 μM or 10 μM, ibrutinib 1 μM, normalized to target cells with inhibitor alone (FIG. 10)) | body weight change from day 0 (surrogate for CRS) [3] | PI3K/AKT signaling z-score (Ingenuity Pathway Analysis) ([4]; 72 hours (FIG. 5F, FIG. 9)) | IL-8 signaling pathway z-score (Ingenuity Pathway Analysis) ([4]; 72 hours (FIG. 9)) | PDGF signaling z-score (Ingenuity Pathway Analysis) ([4]; 72 hours (FIG. 9)) | PTEN signaling pathway Z-score (Ingenuity Pathway Analysis) ([4]; 72 hours (FIG. 9)) | STAT 3 pathway z-score (Ingenuity Pathway Analysis) ([4]; 72 hours (FIG. 9)) | TH1 pathway Z-score (Ingenuity Pathway Analysis) ([4]; 72 hours (FIG. 9)) | CART19 antigen specific proliferation (absolute CD3+ T cell count) ([1]; irradiated JeKo-1 1:1, 24 hours (FIG. 1B)) | CART19-mediated killing of tumor cells (tumor specific cytotoxicity), percentage of killing relative to control ([2]; CART19:JeKo-1 1:1, 24 hours, 1 μM or 10 μM vs DMSO (FIG. 1A)) |
| --- | --- | --- | --- | --- | --- | --- | --- | --- | --- | --- | --- | --- |
| C=CC(=O)N1CCC[C@@H](n2nc(-c3ccc(Oc4ccccc4)cc3)c3c(N)ncnc32)C1 [ibrutinib] | no effect | 100 | no effect | – | – | – | – | – | – | – | – | – |
| NC(=O)[C@H]1CCN(c2ncnc(N)c2F)C[C@@H]1N1CCC[C@@H](Nc2cc(Cl)cc(C(F)(F)F)c2)C1=O [vecabrutinib] | – | – | – | decreases CRS; also recorded: better maintained their body weight | 0.707 | −1.941 | −1.667 | 0.333 | −3.051 | 0.816 | no significant effect | increases CART19-mediated killing of tumor cells; also recorded: dose-dependent increase |
